Assay results taken from PMC11360180, “Enhancement of Antimicrobial Function by L/D-Lysine Substitution on a Novel Broad-Spectrum Antimicrobial Peptide, Phylloseptin-TO2: A Structure-Related Activity Research Study” (Pharmaceutics, 2024).
Where no end group is shown, it is not given here.

What was measured:
S. aureus (ATCC 6538) = type: cell-based, Staphylococcus aureus; settings: ATCC 6538, 24 h
Description: (§1) Seven microorganism strains were used to preliminarily evaluate the antimicrobial activity of PSTO2 and its analogues, including Staphylococcus aureus (S. aureus) (ATCC® 6538), methicillin-resistant Staphylococcus aureus (MRSA) (NCTC® 12493), Enterococcus faecalis (E. faecalis) (NCTC® 12697), E. coli (ATCC® 8739), Klebsiella pneumonia (K. pneumonia) (ATCC® 43816), Pseudomonas aeruginosa (P. aeruginosa) (ATCC® CRM 9027), Acinetobacter baumanni (A. baumanni) (BAA® 747), and Candida albicans (C. albicans) (ATCC® 10231). In this study, the strains were cultured in Mueller–Hinton broth (MHB), nutrient broth (NB), and yeast–peptone–dextrose broth (YPD-B) correspondingly at 37 °C, with shaking at 120 rpm. Each peptide was dissolved from 128 μM to 1 μM and mixed with the bacterium at 5 × 10^5 CFU/mL. In this process, bacteria with culture medium were used as the growth control group; PBS was set up as the vehicle control group; sterile culture medium was used as the blank control group; and Norfloxacin at a concentration of 2 mg/mL and amphotericin B at a concentration of 1 mg/mL were set up as the positive control group for bacteria and fungi, respectively.
(§2) After being incubated for 24 h, a Synergy HT plate reader (Bio-Tek, Shoreline, WA, USA) was used to detect the absorbance of each well in the 96-well plate at λ = 550 nm. The concentration at which no visible turbidity could be recorded was the MIC value. Beginning from the MIC value, 10 µL of solution in each clear well was dropped on the sterile agar plates. The plate was checked the next day for colony formation, and the lowest concentration at which no colony growing was recorded as an MBC value.

A. baumannii (BAA 747) = type: cell-based, Acinetobacter baumanni; settings: BAA 747, 24 h
Description: as §1, §2

[1] = system: K. pneumonia (ATCC 43816); type: cell-based, Klebsiella pneumonia; settings: ATCC 43816, 24 h
Description: as §1, §2

[2] = system: P. aeruginosa (ATCC 9027); type: cell-based, Pseudomonas aeruginosa; settings: ATCC 9027, 24 h
Description: as §1, §2

C. albicans = type: cell-based, Candida albicans; settings: 24 h
Description: as §1, §2

[3] = system: MRSA (ATCC 12493) biofilm; type: cell-based, methicillin-resistant Staphylococcus aureus; settings: ATCC 12493, 24 h
Experimental: To test the anti-biofilm ability of PSTO2 and its analogues, three types of microorganisms (S. aureus ATCC® 6538, E. coli ATCC® 8739, and MRSA NCTC® 12493) were chosen. Tryptic soy broth (TSB) and Lysogeny broth (LB) were used to culture microorganisms. The peptide was dissolved in an autoclaved PBS solution and diluted into concentrations ranging from 51,200 µM to 100 µM. One µL of peptide solution of each concentration was added into a 96-well plate with 100 µL bacterium at 5 × 10^5 CFU/mL. The plate was incubated at 37 °C for 24 h, with shaking at 200 rpm. After overnight incubation, the planktonic bacteria were washed up. Then, 100 µL of methanol was used to fix the biofilms onto the bottom, and 100 µL of 0.1% crystal violet solution (Sigma-Aldrich, Gillingham, UK) was added to each well to stain the biofilms. After drying, 160 µL of acetic acid (30% in deionised water, Sigma-Aldrich, UK) was added to each well to dissolve the shaded parts. The absorbance was detected with the Synergy HT plate reader at λ = 595 nm.
For the MBEC assay, 100 µL of the bacterium of 5 × 10^5 CFU/mL was transferred into an empty 96-well plate, and the plate was incubated at 37 °C for 24 h to obtain the biofilms primarily. Then, the peptide solution from 512 µM to 1 µM was transferred into a corresponding well, followed by 24 h incubation at 37 °C, with shaking at 200 rpm. After this, the plate was handled using the identical method to the plate in the MBIC assay, and the absorbance of each well was detected with the Synergy HT plate reader at λ = 595 nm. The minimum concentration at which the peptide can eradicate the existing biofilm was recorded as the MBEC value.

MCF-7 = type: cell-based, human; settings: 24 h
Experimental: (§3) The percentage of cancer cell survival after being treated with peptides was assessed with 3-(4,5-dimethylthiazol-2-yl-)-2,5-diphenyltetrazolium bromide (MTT). The principle is the reduction process of the yellow tetrazolium to DMSO-soluble formazan crystals caused by the metabolic capability of living cells. All the cancerous and normal cells were obtained from the American Type Culture Collection (Rockville, VA, USA). Human lung cancer NCI-H838 and NCI-H460 were cultured in Roswell Park Memorial Institute (RPMI)-1640 medium (Gibco, Paisley, UK) and mixed with 10% (v/v) fetal bovine serum (FBS) (Gibco, Campinas, Brazil) and 1% penicillin–streptomycin (Gibco, Grand Island, NY, USA) 89/10/1 v/v/v). U251MG and MCF-7 were cultured in Dulbecco’s Modified Eagle medium (DMEM) (Gibco, Paisley, UK) and mixed with 10% FBS and 1% penicillin–streptomycin. HCT 116 was cultured in McCoy’s 5A (modified) medium (Gibco, Paisley, UK) and mixed with 10% FBS and 1% penicillin–streptomycin. MRC-5 and HaCat were cultured in Minimum Essential Medium (MEM) (Gibco, Paisley, UK) and mixed with 10% FBS and 1% penicillin–streptomycin. Cells were cultured and seeded in a 96-well plate at a density of 8000 cells/well with the corresponding medium and incubated for 24 h at 37 °C with 5% CO2. After 24 h of incubation, the cells were starved with a serum-free medium for 4 h at 37 °C. Then, the cells were incubated with different concentrations of peptide solution in a serum-free medium from 1 nM to 100 µM at 37 °C for 24 h. Meanwhile, triton X-100 (0.1%) (Sigma-Aldrich, St. Louis, MO, USA) and PBS were chosen as positive and negative controls. After 10 µL of MTT (5 mg/mL) was added to each well away from light and incubated at 37 °C for 2 h, the formazan generated by mitochondria was dissolved with DMSO. The absorbance was detected at a wavelength of 570 nm by a Synergy HT plate reader (Bio-Tek, Shoreline, WA, USA).

NCI-H460 = type: cell-based, human; settings: 24 h
Experimental: as §3

NCI-H838 = type: cell-based, human; settings: 24 h
Experimental: as §3

U251MG = type: cell-based, human; settings: 24 h
Experimental: as §3

HaCat = type: cell-based; settings: 24 h
Experimental: as §3

MRC-5 = type: cell-based; settings: 24 h
Experimental: as §3

horse red blood cells = type: cell-based
Experimental: To assess the haemolytic activity of PSTO2 and its analogues, 2% fresh defibrinated horse red blood cells (TCS Biosciences Ltd., Buckingham, UK) were acquired after being washed and resuspended in sterile PBS. Each peptide was dissolved in PBS to prepare solutions with concentrations ranging from 2 µM to 1024 µM. Subsequently, 100 µL of each peptide solution was mixed with 100 µL of the red blood cell suspension. The red blood cells treated with 1% triton X-100 and sterile PBS in equivalent volumes were set up as the positive and negative control groups, respectively. Then, all the samples were incubated at 37 °C for 2 h. Thereafter, the samples were centrifuged at 900× g for 10 min. Finally, 100 µL of supernatant of each sample was transferred into a 96-well plate, and the absorbance was recorded by a Synergy HT plate reader (Bio-Tek, Shoreline, WA, USA) at a wavelength of 570. The following equation was used to calculate haemolysis activity:Haemolysis activity = (Sample absorbance − Ab)/(Ap − Ab) × 100% where Ab refers to the mean value of absorbance of the negative control (incubated with PBS only), and Ap refers to the mean absorbance value of the positive control (incubated with triton X-100).

FLSLIPHAISAVSALAKHL-NH2 [PSTO2, phylloseptin-TO2]
MBC (S. aureus (ATCC 6538)): 4 µM | MBC (A. baumannii (BAA 747)): >128 µM | MIC (A. baumannii (BAA 747)): >128 µM | MBC [1]: 128 µM | MIC [1]: 64 µM | MBC [2]: >128 µM | MIC [2]: >128 µM | MBC (C. albicans): 128 µM | MIC (C. albicans): 32 µM | MBIC [3]: 4 µM | IC50 (MCF-7): 23.1 µM | IC50 (NCI-H460): 78.3 µM | IC50 (NCI-H838): 85.8 µM | IC50 (U251MG): 84 µM | IC50 (HaCat): 70.58 µM | IC50 (MRC-5): 73.22 µM | HC10 (horse red blood cells): 21.78
